The molecules below were run against recombinant full length HPK-1 enzyme (Homo sapiens (Human), UniProt Q92918) (assay: HPK-1 biochemical enzyme assay (ADP-Glo kinase inhibition)). Conditions: recombinant full length HPK-1 6.8 nM, 10 μM ATP, 12.5 μM MBP, 30 mins at 25° C.
recombinant full length HPK-1 enzyme, sequence (Q92918 whole entry, species assumed): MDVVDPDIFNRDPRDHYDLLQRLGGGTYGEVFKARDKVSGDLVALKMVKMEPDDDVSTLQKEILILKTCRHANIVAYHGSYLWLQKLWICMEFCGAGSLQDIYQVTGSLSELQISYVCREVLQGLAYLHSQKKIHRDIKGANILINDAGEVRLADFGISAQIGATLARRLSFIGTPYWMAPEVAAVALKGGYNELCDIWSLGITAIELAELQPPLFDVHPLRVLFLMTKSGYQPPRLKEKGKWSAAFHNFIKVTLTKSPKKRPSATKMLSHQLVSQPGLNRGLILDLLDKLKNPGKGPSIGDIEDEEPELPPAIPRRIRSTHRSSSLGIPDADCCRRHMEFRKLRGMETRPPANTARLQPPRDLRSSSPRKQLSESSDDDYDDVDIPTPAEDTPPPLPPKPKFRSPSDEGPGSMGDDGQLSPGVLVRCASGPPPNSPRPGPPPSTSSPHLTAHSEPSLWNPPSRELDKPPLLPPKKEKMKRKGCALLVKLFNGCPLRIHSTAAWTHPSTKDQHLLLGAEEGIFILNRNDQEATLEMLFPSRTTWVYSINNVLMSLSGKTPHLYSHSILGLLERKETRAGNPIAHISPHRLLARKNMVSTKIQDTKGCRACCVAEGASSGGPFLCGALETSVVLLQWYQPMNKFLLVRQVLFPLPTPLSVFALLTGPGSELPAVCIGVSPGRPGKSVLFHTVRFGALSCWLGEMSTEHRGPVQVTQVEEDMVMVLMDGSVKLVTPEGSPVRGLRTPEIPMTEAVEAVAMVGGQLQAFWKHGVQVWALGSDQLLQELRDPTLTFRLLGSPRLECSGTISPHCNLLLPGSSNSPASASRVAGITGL
Method in brief: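 Recombinant full-length human HPK-1 (6.8 nM) incubated 30 min at 25° C. with 10 μM ATP and 12.5 μM swine MBP in 40 mM Tris pH 7.4, 20 mM MgCl2, 50 μM DTT, 0.1 mg/mL BSA. ADP measured by ADP-Glo; IC50 from 10 concentrations, normalized to no-enzyme and vehicle controls.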
`Cc1c(Nc2cc[nH]c(=O)c2C(=O)Nc2cccc(N3CCN(C)CC3)c2)cnc2c1NCCO2` [Example 222, 4-((8-methyl-2,3-dihydro-1H-pyrido[2,3-b][1,4]oxazin-7-yl)amino)-N-(3-(4-methylpiperazin-1-yl)phenyl)-2-oxo-1,2-dihydropyridine-3-carboxamide] showed an IC50 of 0.1 to 1 µM.
For `Cc1c(Nc2cc[nH]c(=O)c2C(=O)Nc2ccc(S(C)(=O)=O)cc2)cnc2c1NCCO2` [Example 223, 4-((8-methyl-2,3-dihydro-1H-pyrido[2,3-b][1,4]oxazin-7-yl)amino)-N-(4-(methylsulfonyl)phenyl)-2-oxo-1,2-dihydropyridine-3-carboxamide], the IC50 was 0.01 to 0.1 µM.
In the case of `Cc1nc2cc(NC(=O)c3c(Nc4cnc5c(c4C)NCCO5)cc[nH]c3=O)ccc2[nH]1` [Example 224, N-(2-methyl-1H-benzo[d]imidazol-5-yl)-4-((8-methyl-2,3-dihydro-1H-pyrido[2,3-b][1,4]oxazin-7-yl)amino)-2-oxo-1,2-dihydropyridine-3-carboxamide], the IC50 is reported as 0.01 to 0.1 µM.
In the case of `Cc1c(Nc2cc[nH]c(=O)c2C(=O)Nc2ccc(N3CCN(CCCS(C)(=O)=O)CC3)cc2)cnc2c1NCCO2` [Example 225, 4-((8-methyl-2,3-dihydro-1H-pyrido[2,3-b][1,4]oxazin-7-yl)amino)-N-(4-(4-(3-(methylsulfonyl)propyl)piperazin-1-yl)phenyl)-2-oxo-1,2-dihydropyridine-3-carboxamide], the IC50 is reported as no more than 0.01 µM.
`Cc1c(Nc2cc[nH]c(=O)c2C(=O)Nc2ccc(N3CCN(CCN4CCOCC4)CC3)cc2)cnc2c1NCCO2` [Example 226, 4-((8-methyl-2,3-dihydro-1H-pyrido[2,3-b][1,4]oxazin-7-yl)amino)-N-(4-(4-(2-morpholinoethyl)piperazin-1-yl)phenyl)-2-oxo-1,2-dihydropyridine-3-carboxamide] gave an IC50 of no more than 0.01 µM.
Molecule `Cc1c(Nc2cc[nH]c(=O)c2C(=O)Nc2ccc(N3CCN(C)CC3)c(CN(C)C)c2)cnc2c1NCCO2` [Example 227, N-(3-((dimethylamino)methyl)-4-(4-methylpiperazin-1-yl)phenyl)-4-((8-methyl-2,3-dihydro-1H-pyrido[2,3-b][1,4]oxazin-7-yl)amino)-2-oxo-1,2-dihydropyridine-3-carboxamide] has an IC50 of no more than 0.01 µM.
Work on `Cc1c(Nc2cc[nH]c(=O)c2C(=O)Nc2ccc(C[C@H]3COC(=O)N3)cc2)cnc2c1NCCO2` [Example 228, (S)-4-((8-methyl-2,3-dihydro-1H-pyrido[2,3-b][1,4]oxazin-7-yl)amino)-2-oxo-N-(4-((2-oxooxazolidin-4-yl)methyl)phenyl)-1,2-dihydropyridine-3-carboxamide] yielded an IC50 of 0.01 to 0.1 µM.
`Cc1c(Nc2cc[nH]c(=O)c2C(=O)Nc2cnc(-n3nccn3)c(Cl)c2)cnc2c1NCCO2` [Example 229, N-(5-chloro-6-(2H-1,2,3-triazol-2-yl)pyridin-3-yl)-4-((8-methyl-2,3-dihydro-1H-pyrido[2,3-b][1,4]oxazin-7-yl)amino)-2-oxo-1,2-dihydropyridine-3-carboxamide] gave an IC50 of 0.1 to 1 µM.
`Cc1c(Nc2cc[nH]c(=O)c2C(=O)Nc2ccc3c(c2)OCCO3)cnc2c1NCCO2` [Example 230, N-(2,3-dihydrobenzo[b][1,4]dioxin-6-yl)-4-((8-methyl-2,3-dihydro-1H-pyrido[2,3-b][1,4]oxazin-7-yl)amino)-2-oxo-1,2-dihydropyridine-3-carboxamide] gave an IC50 of 0.01 to 0.1 µM.
Molecule `Cc1c(Nc2cc[nH]c(=O)c2C(=O)Nc2ccc(S(=O)(=O)NC3CC3)cc2)cnc2c1NCCO2` [Example 231, N-(4-(N-cyclopropylsulfamoyl)phenyl)-4-((8-methyl-2,3-dihydro-1H-pyrido[2,3-b][1,4]oxazin-7-yl)amino)-2-oxo-1,2-dihydropyridine-3-carboxamide] has an IC50 of 0.01 to 0.1 µM.
`Cc1c(Nc2cc[nH]c(=O)c2C(=O)Nc2ccc(CN3CCS(=O)(=O)CC3)cc2)cnc2c1NCCO2` [Example 232, N-(4-((1,1-dioxidothiomorpholino)methyl)phenyl)-4-((8-methyl-2,3-dihydro-1H-pyrido[2,3-b][1,4]oxazin-7-yl)amino)-2-oxo-1,2-dihydropyridine-3-carboxamide] gave an IC50 of 0.01 to 0.1 µM.
`Cc1c(Nc2cc[nH]c(=O)c2C(=O)Nc2ccc(Cc3ccncc3)cc2)cnc2c1NCCO2` [Example 233, 4-((8-methyl-2,3-dihydro-1H-pyrido[2,3-b][1,4]oxazin-7-yl)amino)-2-oxo-N-(4-(pyridin-4-ylmethyl)phenyl)-1,2-dihydropyridine-3-carboxamide] showed an IC50 of 0.01 to 0.1 µM.
`Cc1c(Nc2cc[nH]c(=O)c2C(=O)Nc2ccc3[nH]ncc3c2)cnc2c1NCCO2` [Example 234, N-(1H-indazol-5-yl)-4-((8-methyl-2,3-dihydro-1H-pyrido[2,3-b][1,4]oxazin-7-yl)amino)-2-oxo-1,2-dihydropyridine-3-carboxamide] gave an IC50 of 0.01 to 0.1 µM.
For `Cc1c(Nc2cc[nH]c(=O)c2C(=O)Nc2ccc(N3CC4CCC3CN4C)cc2)cnc2c1NCCO2` (centres unmarked) [Example 235, 4-((8-methyl-2,3-dihydro-1H-pyrido[2,3-b][1,4]oxazin-7-yl)amino)-N-(4-(5-methyl-2,5-diazabicyclo[2.2.2]octan-2-yl)phenyl)-2-oxo-1,2-dihydropyridine-3-carboxamide], the IC50 was no more than 0.01 µM.
`Cc1c(Nc2cc[nH]c(=O)c2C(=O)Nc2ccc(N3C[C@@H]4C[C@H]3CN4C)cc2)cnc2c1NCCO2` [Example 236, 4-((8-methyl-2,3-dihydro-1H-pyrido[2,3-b][1,4]oxazin-7-yl)amino)-N-(4-((1S,4S)-5-methyl-2,5-diazabicyclo[2.2.1]heptan-2-yl)phenyl)-2-oxo-1,2-dihydropyridine-3-carboxamide] gave an IC50 of 0.01 to 0.1 µM.
`Cc1c(Nc2cc[nH]c(=O)c2C(=O)Nc2ccc3cn[nH]c3c2)cnc2c1NCCO2` [Example 237, N-(1H-indazol-6-yl)-4-((8-methyl-2,3-dihydro-1H-pyrido[2,3-b][1,4]oxazin-7-yl)amino)-2-oxo-1,2-dihydropyridine-3-carboxamide] was tested, and the IC50 was 0.01 to 0.1 µM.
In the case of `Cc1c(Nc2cc[nH]c(=O)c2C(=O)Nc2ccc(N3CCN(CCC4CNC4)CC3)cc2)cnc2c1NCCO2` [Example 238, N-(4-(4-(2-(azetidin-3-yl)ethyl)piperazin-1-yl)phenyl)-4-((8-methyl-2,3-dihydro-1H-pyrido[2,3-b][1,4]oxazin-7-yl)amino)-2-oxo-1,2-dihydropyridine-3-carboxamide], the IC50 is reported as no more than 0.01 µM.
`Cc1c(Nc2cc[nH]c(=O)c2C(=O)Nc2ccc3c(c2)N(C)C(=O)CO3)cnc2c1NCCO2` [Example 239, 4-((8-methyl-2,3-dihydro-1H-pyrido[2,3-b][1,4]oxazin-7-yl)amino)-N-(4-methyl-3-oxo-3,4-dihydro-2H-benzo[b][1,4]oxazin-6-yl)-2-oxo-1,2-dihydropyridine-3-carboxamide] showed an IC50 of 0.1 to 1 µM.
For `Cc1c(Nc2cc[nH]c(=O)c2C(=O)Nc2ccc3c(c2)NCCO3)cnc2c1NCCO2` [Example 240, N-(3,4-dihydro-2H-benzo[b][1,4]oxazin-6-yl)-4-((8-methyl-2,3-dihydro-1H-pyrido[2,3-b][1,4]oxazin-7-yl)amino)-2-oxo-1,2-dihydropyridine-3-carboxamide], the IC50 was 0.01 to 0.1 µM.
`Cc1c(Nc2cc[nH]c(=O)c2C(=O)Nc2ccc(N3CCN(C)C[C@H]3C)cc2)cnc2c1NCCO2` [Example 241, (R)-N-(4-(2,4-dimethylpiperazin-1-yl)phenyl)-4-((8-methyl-2,3-dihydro-1H-pyrido[2,3-b][1,4]oxazin-7-yl)amino)-2-oxo-1,2-dihydropyridine-3-carboxamide] was tested, and the IC50 was no more than 0.01 µM.

Reference: patent US20250282794A1 (CURADEV PHARMA LTD, priority 2022, published 2025)
